Tested on: MOLT-4
Assay: Cell viability (CellTiter Glo), compressed perturbation pools with informed pool design, MAX-based deconvolution, MOLT-4;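 note: higher DRS means a larger drug effect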
Conditions: not given
Description: (§1) Total cell viability was measured for each sample using an ATP-based luminescence assay (i.e., CellTiter Glo). Each cancer drug was then screened at multiple concentrations ranging from one nM to ten μM in order to generate a dose-response curve and calculate a DRS for each cancer cell line.
(§2) Each cancer drug was cultured with target cells individually. At the end of the screen, samples were either analyzed individually or compressed into pools for analysis. The library was compressed alphabetically into ten cohorts, each of which contained seven cancer drugs present in three out of the seven pools, as shown in Table VII. Said another way, the screening platform 210 generated a “7 pick 3” compressed library by assigning the cancer drugs among different pools. […] The library was also compressed into ten cohorts with pools designed based on information known about each cancer drug, as shown in Table VIII. After cell viability measurement and DRS calculation, the DRS of each cancer drug in the samples generated based on the pools were deconvoluted and compared to the DRS for each cancer drug measured individually.
(§3) In parallel to the exemplary sample compression screen covered in Table VII, perturbations were compressed into pools and then screened. The pools were designed using drug class as a feature with two compression rules (or simply “rules”). The first rule required that drugs from the same class be separated into different cohorts (i.e., mutually exclusive groups of pools). […] A benefit of compressing perturbations is the ability to measure additive, antagonistic, and synergistic effects between drugs in the same pool. However, these effects can negatively impact deconvolution of individual drug effects. Therefore, combinations of drugs for which evidence of clinical toxicity exists can be assigned to different pools in accordance with an informed pooling operation. As new preclinical or clinical evidence of toxic combinations becomes available, the rules implemented by the screening platform 210—and more specifically, its algorithm for compressing members of a library—can be updated accordingly.
(§4) In MAX-based deconvolution, an assumption of neutrality between the compressed perturbations is made. In other words, the perturbation with the largest effect is assumed to be masking the effects, if any, of the other perturbations in the pool. For SUM- and MAX-based deconvolution, qualitative deconvolution is first performed to rank the perturbations in each pool based on size of expected effect. Qualitative deconvolution, as described above, ranks the perturbations in a pool from largest effect size to smallest effect size. The ranking is based on the overlap of each perturbation's unique subset of pools with the highest and lowest measured pools. The perturbation with the largest effect is expected to be present in the pools with the highest measured signal or corresponding metric (e.g., DRS), while the perturbation with the smallest effect is expected to be present in the pools with the lowest measured signal or corresponding metric (e.g., DRS).
(§5) For MAX-based deconvolution, the highest ranked perturbation in the rank order is first assigned an effect size based on the pool with the lowest measured signal or corresponding metric (e.g., DRS) that it is present in. Said another way, the screening platform 210 can identify the highest ranked perturbation in the rank order and then assign an effect size based on the measured signal or corresponding metric (e.g., DRS) of the “weakest” pool in which the highest ranked perturbation is included. The screening platform 210 can repeat this step for the next highest ranked perturbation, and so on until the measurements for each pool have been assigned to one of the perturbations. The effects for the remaining perturbations can be assigned a value of zero, since it is assumed that their effect is masked by the perturbation with the largest effect in each pool.

Row | SMILES | DRS | DRS from MAX-based deconvolution
1 | CC(C)(O)CNc1nc(Nc2ccnc(C(F)(F)F)c2)nc(-c2cccc(C(F)(F)F)n2)n1 [Enasidenib] | 0.00 | 0.00

Same assay, conditions: MOLT-4, None (measured individually), informed pool design table

Row | SMILES | DRS
2 | CN1CCN(c2ccc(C(=O)Nc3n[nH]c4ccc(Cc5cc(F)cc(F)c5)cc34)c(NC3CCOCC3)c2)CC1 [Entrectinib] | 18.70
3 | CC(C)(C#N)c1cc(Cn2cncn2)cc(C(C)(C)C#N)c1 [Anastrozole] | 0.56
4 | COc1cc2nccc(Oc3ccc(NC(=O)C4(C(=O)Nc5ccc(F)cc5)CC4)cc3)c2cc1OC [Cabozantinib] | 0.33
5 | CNC(=O)c1cc(Oc2ccc(NC(=O)Nc3ccc(Cl)c(C(F)(F)F)c3)c(F)c2)ccn1 [Regorafenib] | 3.95
6 | Cc1cc(Nc2ncc(Cl)c(Nc3ccccc3S(=O)(=O)C(C)C)n2)c(OC(C)C)cc1C1CCNCC1 [Ceritinib] | 6.77
7 | O=C(c1cc(Cc2n[nH]c(=O)c3ccccc23)ccc1F)N1CCN(C(=O)C2CC2)CC1 [Olaparib] | 0.24
8 | CNC(=O)c1ccc(-c2cnc3ncc(Cc4ccc5ncccc5c4)n3n2)cc1F [Capmatinib] | 0.40

Same assay, conditions: MOLT-4, Samples, 7 Pick 3 informed perturbation pools

Row | SMILES | DRS from MAX-based deconvolution
9 | CN1CCN(c2ccc(C(=O)Nc3n[nH]c4ccc(Cc5cc(F)cc(F)c5)cc34)c(NC3CCOCC3)c2)CC1 [Entrectinib] | 21.41
10 | CC(C)(C#N)c1cc(Cn2cncn2)cc(C(C)(C)C#N)c1 [Anastrozole] | 0.79
11 | COc1cc2nccc(Oc3ccc(NC(=O)C4(C(=O)Nc5ccc(F)cc5)CC4)cc3)c2cc1OC [Cabozantinib] | 0.00
12 | CNC(=O)c1cc(Oc2ccc(NC(=O)Nc3ccc(Cl)c(C(F)(F)F)c3)c(F)c2)ccn1 [Regorafenib] | 4.25
13 | Cc1cc(Nc2ncc(Cl)c(Nc3ccccc3S(=O)(=O)C(C)C)n2)c(OC(C)C)cc1C1CCNCC1 [Ceritinib] | 6.77
14 | O=C(c1cc(Cc2n[nH]c(=O)c3ccccc23)ccc1F)N1CCN(C(=O)C2CC2)CC1 [Olaparib] | 0.00
15 | CNC(=O)c1ccc(-c2cnc3ncc(Cc4ccc5ncccc5c4)n3n2)cc1F [Capmatinib] | 0.00

Tested on: MOLT-4
Assay: Cell viability (CellTiter Glo), library of cancer drugs, individual or sample compression with randomized (alphabetical) pools, MOLT-4
Format: cell-based
Conditions: not given
Description: as §1, §2
(§6) In SUM-based deconvolution, an assumption of additivity is used to quantify the individual effects of each perturbation on each target. Additivity implies that each perturbation effect on each target is positively contributing to the overall effect measured for that pool. This is an accurate assumption for certain experiments, such as when targets or samples are compressed. When targets are pooled—or when samples containing different targets are pooled—the effect of each perturbation on each individual target is diluted. In other words, each perturbation has an isolated effect on a target in culture, and the sum total of the isolated effects are measured when pooled. Therefore, SUM-based deconvolution breaks down the sum total measured for a pool and assigns estimated fractional effects to each compressed perturbation or target in the pool. The screening platform 210 used SUM-based deconvolution for all target and sample compression experiments described above.

Row | SMILES | DRS | DRS from deconvolution
16 | CC(C)(O)CNc1nc(Nc2ccnc(C(F)(F)F)c2)nc(-c2cccc(C(F)(F)F)n2)n1 [Enasidenib] | 0.00 | 0.00

Same assay, conditions: MOLT-4, None (measured individually)

Row | SMILES | DRS
17 | CN1CCN(c2ccc(C(=O)Nc3n[nH]c4ccc(Cc5cc(F)cc(F)c5)cc34)c(NC3CCOCC3)c2)CC1 [Entrectinib] | 0.00
18 | CC(C)(C#N)c1cc(Cn2cncn2)cc(C(C)(C)C#N)c1 [Anastrozole] | 0.01
19 | COc1cc2nccc(Oc3ccc(NC(=O)C4(C(=O)Nc5ccc(F)cc5)CC4)cc3)c2cc1OC [Cabozantinib] | 2.70
20 | CNC(=O)c1cc(Oc2ccc(NC(=O)Nc3ccc(Cl)c(C(F)(F)F)c3)c(F)c2)ccn1 [Regorafenib] | 5.79
21 | Cc1cc(Nc2ncc(Cl)c(Nc3ccccc3S(=O)(=O)C(C)C)n2)c(OC(C)C)cc1C1CCNCC1 [Ceritinib] | 0.00
22 | O=C(c1cc(Cc2n[nH]c(=O)c3ccccc23)ccc1F)N1CCN(C(=O)C2CC2)CC1 [Olaparib] | 5.28
23 | CNC(=O)c1ccc(-c2cnc3ncc(Cc4ccc5ncccc5c4)n3n2)cc1F [Capmatinib] | 0.10

Same assay, conditions: MOLT-4, Samples, 7 Pick 3 randomized (alphabetical) sample pools

Row | SMILES | DRS from deconvolution
24 | CN1CCN(c2ccc(C(=O)Nc3n[nH]c4ccc(Cc5cc(F)cc(F)c5)cc34)c(NC3CCOCC3)c2)CC1 [Entrectinib] | 0.00
25 | CC(C)(C#N)c1cc(Cn2cncn2)cc(C(C)(C)C#N)c1 [Anastrozole] | 0.00
26 | COc1cc2nccc(Oc3ccc(NC(=O)C4(C(=O)Nc5ccc(F)cc5)CC4)cc3)c2cc1OC [Cabozantinib] | 9.82
27 | CNC(=O)c1cc(Oc2ccc(NC(=O)Nc3ccc(Cl)c(C(F)(F)F)c3)c(F)c2)ccn1 [Regorafenib] | 5.22
28 | Cc1cc(Nc2ncc(Cl)c(Nc3ccccc3S(=O)(=O)C(C)C)n2)c(OC(C)C)cc1C1CCNCC1 [Ceritinib] | 0.00
29 | O=C(c1cc(Cc2n[nH]c(=O)c3ccccc23)ccc1F)N1CCN(C(=O)C2CC2)CC1 [Olaparib] | 5.41
30 | CNC(=O)c1ccc(-c2cnc3ncc(Cc4ccc5ncccc5c4)n3n2)cc1F [Capmatinib] | 7.24

Tested on: REH
Assay: Cell viability (CellTiter Glo), compressed perturbation pools with informed pool design, MAX-based deconvolution, REH;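 note: higher DRS means a larger drug effect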
Conditions: not given
Description: as §1, §2, §3, §4, §5

Row | SMILES | DRS | DRS from MAX-based deconvolution
31 | CC(C)(O)CNc1nc(Nc2ccnc(C(F)(F)F)c2)nc(-c2cccc(C(F)(F)F)n2)n1 [Enasidenib] | 0.00 | 0.00

Same assay, conditions: REH, None (measured individually), informed pool design table

Row | SMILES | DRS
32 | CN1CCN(c2ccc(C(=O)Nc3n[nH]c4ccc(Cc5cc(F)cc(F)c5)cc34)c(NC3CCOCC3)c2)CC1 [Entrectinib] | 16.20
33 | CC(C)(C#N)c1cc(Cn2cncn2)cc(C(C)(C)C#N)c1 [Anastrozole] | 0.06
34 | COc1cc2nccc(Oc3ccc(NC(=O)C4(C(=O)Nc5ccc(F)cc5)CC4)cc3)c2cc1OC [Cabozantinib] | 0.53
35 | CNC(=O)c1cc(Oc2ccc(NC(=O)Nc3ccc(Cl)c(C(F)(F)F)c3)c(F)c2)ccn1 [Regorafenib] | 2.85
36 | Cc1cc(Nc2ncc(Cl)c(Nc3ccccc3S(=O)(=O)C(C)C)n2)c(OC(C)C)cc1C1CCNCC1 [Ceritinib] | 10.87
37 | O=C(c1cc(Cc2n[nH]c(=O)c3ccccc23)ccc1F)N1CCN(C(=O)C2CC2)CC1 [Olaparib] | 1.84
38 | CNC(=O)c1ccc(-c2cnc3ncc(Cc4ccc5ncccc5c4)n3n2)cc1F [Capmatinib] | 0.00

Same assay, conditions: REH, Samples, 7 Pick 3 informed perturbation pools

Row | SMILES | DRS from MAX-based deconvolution
39 | CN1CCN(c2ccc(C(=O)Nc3n[nH]c4ccc(Cc5cc(F)cc(F)c5)cc34)c(NC3CCOCC3)c2)CC1 [Entrectinib] | 18.94
40 | CC(C)(C#N)c1cc(Cn2cncn2)cc(C(C)(C)C#N)c1 [Anastrozole] | 0.00
41 | COc1cc2nccc(Oc3ccc(NC(=O)C4(C(=O)Nc5ccc(F)cc5)CC4)cc3)c2cc1OC [Cabozantinib] | 0.00
42 | CNC(=O)c1cc(Oc2ccc(NC(=O)Nc3ccc(Cl)c(C(F)(F)F)c3)c(F)c2)ccn1 [Regorafenib] | 2.97
43 | Cc1cc(Nc2ncc(Cl)c(Nc3ccccc3S(=O)(=O)C(C)C)n2)c(OC(C)C)cc1C1CCNCC1 [Ceritinib] | 12.65
44 | O=C(c1cc(Cc2n[nH]c(=O)c3ccccc23)ccc1F)N1CCN(C(=O)C2CC2)CC1 [Olaparib] | 0.00
45 | CNC(=O)c1ccc(-c2cnc3ncc(Cc4ccc5ncccc5c4)n3n2)cc1F [Capmatinib] | 0.00

Tested on: REH
Assay: Cell viability (CellTiter Glo), library of cancer drugs, individual or sample compression with randomized (alphabetical) pools, REH
Format: cell-based
Conditions: not given
Description: as §1, §2, §6

Row | SMILES | DRS | DRS from deconvolution
46 | CC(C)(O)CNc1nc(Nc2ccnc(C(F)(F)F)c2)nc(-c2cccc(C(F)(F)F)n2)n1 [Enasidenib] | 0.00 | 0.00

Same assay, conditions: REH, None (measured individually)

Row | SMILES | DRS
47 | CN1CCN(c2ccc(C(=O)Nc3n[nH]c4ccc(Cc5cc(F)cc(F)c5)cc34)c(NC3CCOCC3)c2)CC1 [Entrectinib] | 0.00
48 | CC(C)(C#N)c1cc(Cn2cncn2)cc(C(C)(C)C#N)c1 [Anastrozole] | 0.01
49 | COc1cc2nccc(Oc3ccc(NC(=O)C4(C(=O)Nc5ccc(F)cc5)CC4)cc3)c2cc1OC [Cabozantinib] | 8.20
50 | CNC(=O)c1cc(Oc2ccc(NC(=O)Nc3ccc(Cl)c(C(F)(F)F)c3)c(F)c2)ccn1 [Regorafenib] | 6.99
51 | Cc1cc(Nc2ncc(Cl)c(Nc3ccccc3S(=O)(=O)C(C)C)n2)c(OC(C)C)cc1C1CCNCC1 [Ceritinib] | 0.60
52 | O=C(c1cc(Cc2n[nH]c(=O)c3ccccc23)ccc1F)N1CCN(C(=O)C2CC2)CC1 [Olaparib] | 2.58
53 | CNC(=O)c1ccc(-c2cnc3ncc(Cc4ccc5ncccc5c4)n3n2)cc1F [Capmatinib] | 0.10

Same assay, conditions: REH, Samples, 7 Pick 3 randomized (alphabetical) sample pools

Row | SMILES | DRS from deconvolution
54 | CN1CCN(c2ccc(C(=O)Nc3n[nH]c4ccc(Cc5cc(F)cc(F)c5)cc34)c(NC3CCOCC3)c2)CC1 [Entrectinib] | 0.00
55 | CC(C)(C#N)c1cc(Cn2cncn2)cc(C(C)(C)C#N)c1 [Anastrozole] | 0.21
56 | COc1cc2nccc(Oc3ccc(NC(=O)C4(C(=O)Nc5ccc(F)cc5)CC4)cc3)c2cc1OC [Cabozantinib] | 9.30
57 | CNC(=O)c1cc(Oc2ccc(NC(=O)Nc3ccc(Cl)c(C(F)(F)F)c3)c(F)c2)ccn1 [Regorafenib] | 7.23
58 | Cc1cc(Nc2ncc(Cl)c(Nc3ccccc3S(=O)(=O)C(C)C)n2)c(OC(C)C)cc1C1CCNCC1 [Ceritinib] | 0.60
59 | O=C(c1cc(Cc2n[nH]c(=O)c3ccccc23)ccc1F)N1CCN(C(=O)C2CC2)CC1 [Olaparib] | 2.61
60 | CNC(=O)c1ccc(-c2cnc3ncc(Cc4ccc5ncccc5c4)n3n2)cc1F [Capmatinib] | 1.13

From patent publication US20260378560A1, “APPROACHES TO DESIGNING AND PERFORMING COMPRESSED BIOLOGICAL EXPERIMENTS AND SYSTEMS FOR IMPLEMENTING THE SAME” (EXVIVO LABS INC., priority 2023, published 2026)
